Holding throughout (format): biochemical
In assay [1] the target is T1, Recombinant human FAP (Homo sapiens, UniProt Q12884).
T1 construct: purchased R&D systems
T1 sequence (Q12884 1-760): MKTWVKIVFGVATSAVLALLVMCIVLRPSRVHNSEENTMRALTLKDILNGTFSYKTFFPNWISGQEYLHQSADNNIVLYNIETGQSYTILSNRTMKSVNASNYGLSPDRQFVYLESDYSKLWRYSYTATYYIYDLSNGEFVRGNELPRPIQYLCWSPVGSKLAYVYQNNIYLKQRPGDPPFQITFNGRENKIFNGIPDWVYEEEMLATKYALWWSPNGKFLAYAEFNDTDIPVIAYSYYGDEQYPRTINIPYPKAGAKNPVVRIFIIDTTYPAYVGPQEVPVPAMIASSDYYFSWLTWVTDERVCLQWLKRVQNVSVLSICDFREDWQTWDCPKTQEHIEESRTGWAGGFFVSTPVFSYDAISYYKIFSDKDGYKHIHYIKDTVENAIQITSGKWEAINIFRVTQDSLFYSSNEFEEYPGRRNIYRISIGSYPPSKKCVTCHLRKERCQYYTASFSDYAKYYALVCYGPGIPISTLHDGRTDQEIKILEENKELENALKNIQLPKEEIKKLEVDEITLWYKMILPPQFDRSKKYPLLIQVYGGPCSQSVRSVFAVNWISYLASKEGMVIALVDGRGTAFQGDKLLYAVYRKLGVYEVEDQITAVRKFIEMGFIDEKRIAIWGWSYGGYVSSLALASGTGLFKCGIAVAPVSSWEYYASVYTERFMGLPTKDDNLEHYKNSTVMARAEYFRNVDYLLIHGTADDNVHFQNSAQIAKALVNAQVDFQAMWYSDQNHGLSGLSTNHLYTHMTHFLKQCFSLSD
Briefly: FAP FRET assay, FGF21-sequence FRET peptide substrate. The settings on record: FRET peptide with human FGF21 sequence, 6 μM, 37° C. The gist of the method: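 Recombinant human FAP, 10 ng per reaction, in 50 mM HEPES pH 7.2 with 150 mM NaCl, 0.1 mg/ml BSA, 1 mM EDTA; HyLite Fluor 488/QXL 520 FRET peptide of human FGF21 sequence at 6 μM final, ≤0.1% DMSO, 37° C. IC50 from 8-point curves by four-parameter logistic fit.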

Another assay deals with DPP4 (Homo sapiens, UniProt P27487). Briefly: DPP4 inhibition, fluorogenic substrate H-Gly-Pro-AMC. Also on record: purchased R&D Systems. The settings on record: recombinant human DPP4.
Sequence of DPP4 (P27487 whole entry): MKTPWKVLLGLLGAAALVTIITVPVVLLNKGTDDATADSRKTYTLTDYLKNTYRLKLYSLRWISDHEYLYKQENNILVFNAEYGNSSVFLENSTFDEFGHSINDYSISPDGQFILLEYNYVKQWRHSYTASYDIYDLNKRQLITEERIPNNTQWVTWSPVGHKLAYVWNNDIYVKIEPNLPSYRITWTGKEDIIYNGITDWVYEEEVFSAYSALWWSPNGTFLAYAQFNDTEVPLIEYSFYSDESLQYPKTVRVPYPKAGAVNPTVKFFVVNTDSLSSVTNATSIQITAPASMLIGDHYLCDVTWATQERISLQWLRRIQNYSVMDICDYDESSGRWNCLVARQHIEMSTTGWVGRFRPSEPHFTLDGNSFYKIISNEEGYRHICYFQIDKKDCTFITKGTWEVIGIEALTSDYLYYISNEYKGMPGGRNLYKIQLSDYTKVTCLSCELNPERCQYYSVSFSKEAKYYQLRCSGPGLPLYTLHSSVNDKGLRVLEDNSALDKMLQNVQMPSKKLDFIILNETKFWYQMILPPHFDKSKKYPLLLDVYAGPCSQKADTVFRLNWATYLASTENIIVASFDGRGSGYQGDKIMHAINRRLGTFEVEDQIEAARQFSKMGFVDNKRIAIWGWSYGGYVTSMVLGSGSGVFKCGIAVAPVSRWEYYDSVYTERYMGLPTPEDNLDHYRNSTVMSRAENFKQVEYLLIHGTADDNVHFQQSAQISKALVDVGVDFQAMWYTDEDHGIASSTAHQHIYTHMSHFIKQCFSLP
A further assay deals with T2, recombinant human PREP (Homo sapiens, UniProt P48147).
T2 construct: purchased R&D System
T2 sequence (P48147 1-710): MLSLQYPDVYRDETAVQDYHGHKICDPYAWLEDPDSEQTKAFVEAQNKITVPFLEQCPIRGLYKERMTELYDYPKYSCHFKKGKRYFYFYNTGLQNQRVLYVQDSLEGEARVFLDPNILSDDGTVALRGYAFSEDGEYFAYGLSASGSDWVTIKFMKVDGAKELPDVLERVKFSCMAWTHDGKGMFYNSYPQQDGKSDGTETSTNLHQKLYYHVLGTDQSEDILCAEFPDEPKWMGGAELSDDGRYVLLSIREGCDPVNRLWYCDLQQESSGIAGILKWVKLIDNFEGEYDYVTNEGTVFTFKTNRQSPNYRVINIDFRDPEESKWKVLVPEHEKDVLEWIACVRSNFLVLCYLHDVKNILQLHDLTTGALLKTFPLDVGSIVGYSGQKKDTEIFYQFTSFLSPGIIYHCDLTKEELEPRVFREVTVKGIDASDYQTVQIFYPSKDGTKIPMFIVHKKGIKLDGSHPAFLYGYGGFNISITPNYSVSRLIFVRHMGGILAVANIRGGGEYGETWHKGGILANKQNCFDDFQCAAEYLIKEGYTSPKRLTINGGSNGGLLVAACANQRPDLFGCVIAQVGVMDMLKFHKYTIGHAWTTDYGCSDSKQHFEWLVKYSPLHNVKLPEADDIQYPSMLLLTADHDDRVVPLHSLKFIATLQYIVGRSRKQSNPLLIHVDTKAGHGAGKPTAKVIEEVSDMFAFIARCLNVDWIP
Briefly: PREP inhibition, fluorogenic substrate Z-Gly-Pro-AMC. The settings on record: Inhibitory Activity (IC50, nM) PREP, recombinant human PREP. How it is done:
(§1) The compounds according to the present technology were evaluated in terms of the inhibitory effect on the activity of dipeptidyl peptidases including FAP by using a substrate producing fluorescent substances upon enzymatic decomposition. The test was conducted at 25° C. to get a final reaction volume of 100 μL in a 96 black well plate. […] Briefly, the test compounds were dissolved in dimethyl sulfoxide (DMSO) at a concentration of 20 mM and then subjected to serial dilution, thereby creating an 8 point curve. As for the control group, a 6 point curve created by serial dilution of Talabostat in the same buffer solution was used. Fluorescence intensity was measured using a microplate reader (Flexstation3, Molecular Devices) under the wavelength condition exciting at 380 nm and reading the emission at 460 nm. The inhibitory effect of the test compounds was measured as a decrease (%) in the signal rate as compared to the control group without any inhibitor. Data was fixed to a logistic model with four variables and IC50 value was calculated using GraphPad Prism program. As for recombinant human DPP4 (R&D Systems), 25 mM tris (pH 8.0) buffer as a buffer solution and H-Gly-Pro-AMC (Bachem) as a substrate were used. As for recombinant human DPP7 (R&D Systems), 25 mM MES (pH 6.0) buffer as a buffer solution and Lys-Pro-AMC (Bachem) as a substrate were used. As for recombinant human DPP8 (PBS Bioscience), as a buffer solution, a 10 mM tris (pH 7.4) buffer comprising 10 mM of magnesium chloride and 0.05% of Tween 20, and Z-Ala-Pro-AMC (BPS Bioscience) as a substrate were used. As for recombinant human DPP9 (R&D Systems), a 25 mM tris (pH 8.0) buffer as a buffer solution and H-Gly-Pro-AMC (Bachem) as a substrate were used. As for recombinant human PREP (R&D System), as a buffer solution, a 25 mM tris (pH 7.5) buffer comprising 250 mM sodium chloride and 2.5 mM DTT (Dithiolthreitol), and Z-Gly-Pro-AMC (Bachem) as a substrate were used. The evaluation was made by using 10 ng of DPP4, PDD7, and PREP, 20 ng of DPP8, and 50 ng of DPP9 based on the final reaction. In the evaluation of DPP4, the test compounds were subjected to serial dilution in a buffer under the condition containing up to 0.1% of DMSO. In the evaluation of DPP7, DPP8, DPP9, and PREP, the test compounds were subjected to serial dilution in each buffer under the condition containing up to 0.5% of DMSO.

For the next assay, the target named is T3, recombinant human DPP7 (Homo sapiens, UniProt Q9UHL4).
T3 construct: purchased R&D Systems
Nature of the assay: DPP7 inhibition, fluorogenic substrate Lys-Pro-AMC. The settings on record: recombinant human DPP7. The method, then: as §1

Assay [2] addresses T1, Recombinant human FAP. Nature of the assay: FAP inhibition, fluorogenic substrate Z-Gly-Pro-AMC. The settings on record: recombinant human FAP, substrate Z-Gly-Pro-AMC. In a few lines:
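Recombinant human FAP, 10 ng per reaction, in 50 mM Tris pH 7.5 with 1 M NaCl and 1 mg/ml BSA at 25° C; substrate Z-Gly-Pro-AMC, ≤0.1% DMSO. AMC fluorescence read at ex 380/em 460 nm; % signal-rate decrease vs no-inhibitor control, 8-point curves fitted to a four-parameter logistic for IC50.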

Broadly, the IC50 is the point on the concentration scale where inhibition reaches its midpoint.

Take `N#C[C@@H]1CCCN1C(=O)CN1CC[C@@H](Nc2ccc(C(F)(F)F)c3ncccc23)C1` [Example 201, (2S)-1-[2-[(3R)-3-[[8-(trifluoromethyl)-5-quinolyl]amino]pyrrolidin-1-yl]acetyl]pyrrolidine-2-carbonitrile]: the 50% inhibitory concentration (IC50) at Recombinant human FAP [1] was determined as 0.0013 µM; on DPP4, 26.3 µM; on recombinant human PREP it was 9150 nM; at recombinant human DPP7 it was 3.91 µM.

Take `N#C[C@@H]1CCCN1C(=O)CN1CC[C@H](Nc2cccc3ncc(F)cc23)C1` [Example 234, (2S)-1-[2-[(3S)-3-[(3-fluoro-5-quinolyl)amino]pyrrolidin-1-yl]acetyl]pyrrolidine-2-carbonitrile]: the IC50 at Recombinant human FAP [1] stood at 0.0016 µM; on DPP4 it was 63.6 µM; on Recombinant human FAP [2], 0.0013 µM; on recombinant human DPP7, 6.08 µM.

For `COc1ccc(N[C@H]2CCN(CC(=O)N3CCC[C@H]3C#N)C2)c2cccnc12` [Example 243, (2S)-1-[2-[(3S)-3-[(8-methoxy-5-quinolyl)amino]pyrrolidin-1-yl]acetyl]pyrrolidine-2-carbonitrile], the IC50 at Recombinant human FAP [1] was found to be 0.004 µM; on DPP4, 16.9 µM; at Recombinant human FAP [2], 0.0026 µM; on recombinant human DPP7, 3.24 µM.

`N#Cc1ccc(N[C@H]2CCN(CC(=O)N3C[C@@H](F)C[C@H]3C#N)C2)c2cccnc12` [Example 267, 5-[[(3S)-1-[2-oxo-2-[(2S,4S)-2-cyano-4-fluoro-pyrrolidin-1-yl]ethyl]pyrrolidin-3-yl]amino]quinoline-8-carbonitrile]: the IC50 is 0.0015 µM at Recombinant human FAP [1], 2.57 µM at DPP4, 835 nM on recombinant human PREP and 3.16 µM at recombinant human DPP7.

`N#C[C@@H]1C[C@H](F)CN1C(=O)CN1CC[C@H](Nc2ccc(C(=O)Nc3ccccn3)c3ncccc23)C1` [Example 294, N-(2-pyridyl)-5-[[(3S)-1-[2-oxo-2-[(2S,4S)-2-cyano-4-fluoro-pyrrolidin-1-yl]ethyl]pyrrolidin-3-yl]amino]quinoline-8-carboxamide]: the IC50 on Recombinant human FAP [1] came out at 0.0006 µM; on DPP4, 0.439 µM; at recombinant human DPP7, 0.0166 µM.

Regarding `N#C[C@@H]1C[C@H](F)CN1C(=O)CN1CCC(Nc2ccc(F)c3ncccc23)CC1` [Example 330, (2S,4S)-4-fluoro-1-[2-[4-[(8-fluoro-5-quinolyl)amino]-1-piperidyl]acetyl]pyrrolidine-2-carbonitrile], the results for the IC50 at Recombinant human FAP [1], on DPP4 and at Recombinant human FAP [2] were 0.0063 µM, 3.29 µM and 0.0028 µM, respectively.

As to `Cc1ccc(NC2CCN(CC(=O)N3C[C@@H](F)C[C@H]3C#N)CC2)c2cccnc12` [Example 331, (2S,4S)-4-fluoro-1-[2-[4-[(8-methyl-5-quinolyl)amino]-1-piperidyl]acetyl]pyrrolidine-2-carbonitrile], the IC50 on Recombinant human FAP [1] was determined as 0.0065 µM; on DPP4, 5.11 µM; at Recombinant human FAP [2], 0.0038 µM.

As for `N#C[C@@H]1C[C@H](F)CN1C(=O)CN1CCC(Nc2ccnc3c(Cl)cccc23)CC1` [Example 344, (2S,4S)-1-[2-[4-[(8-chloro-4-quinolyl)amino]-1-piperidyl]acetyl]-4-fluoro-pyrrolidine-2-carbonitrile], the IC50 on Recombinant human FAP [1] is 0.006 µM; at DPP4 it was at least 100 µM; at recombinant human DPP7, 4.61 µM.

For the compound `N#C[C@@H]1C[C@H](F)CN1C(=O)CN1CCC(Nc2cc(C(F)(F)F)c3ncccc3c2)CC1` [Example 377, (2S,4S)-4-fluoro-1-[2-[4-[[8-(trifluoromethyl)-6-quinolyl]amino]-1-piperidyl]acetyl]pyrrolidine-2-carbonitrile], the IC50 amounted to 0.0124 µM at Recombinant human FAP [1], 6.61 µM on DPP4, 1400 nM at recombinant human PREP and 0.178 µM at recombinant human DPP7.

On to `N#Cc1ccc2c(OC3CCN(CC(=O)N4C[C@@H](F)C[C@H]4C#N)CC3)cccc2n1` [Example 417, 5-[[1-[2-oxo-2-[(2S,4S)-2-cyano-4-fluoro-pyrrolidin-1-yl]ethyl]-4-piperidyl]oxy]quinoline-2-carbonitrile], for which the results for the IC50 at Recombinant human FAP [1], on DPP4 and at Recombinant human FAP [2] were 0.0065 µM, 5.47 µM and 0.0033 µM, respectively.

On to `N#C[C@@H]1CCCN1C(=O)CN1CCC(Oc2cccc3ncc(F)cc23)CC1` [Example 429, (2S)-1-[2-[4-[(3-fluoro-5-quinolyl)oxy]-1-piperidyl]acetyl]pyrrolidine-2-carbonitrile], for which the IC50 at Recombinant human FAP [1] was found to be 0.0069 µM; on DPP4, 37.2 µM; on recombinant human DPP7 it was 3.97 µM.

In the case of `N#C[C@@H]1CCCN1C(=O)CN1CCC(Oc2ccc(Cl)c3ncccc23)CC1` [Example 431, (2S)-1-[2-[4-[(8-chloro-5-quinolyl)oxy]-1-piperidyl]acetyl]pyrrolidine-2-carbonitrile], the half-inhibitory concentration (IC50) on Recombinant human FAP [1] worked out at 0.0122 µM; on DPP4, 19.3 µM; on recombinant human DPP7 it was 6.34 µM.

Take `N#C[C@@H]1C[C@H](F)CN1C(=O)CN1CCC(Oc2ccnc3c(F)cccc23)CC1` [Example 435, (2S,4S)-4-fluoro-1-[2-[4-[(8-fluoro-4-quinolyl)oxy]-1-piperidyl]acetyl]pyrrolidine-2-carbonitrile]: the IC50 on Recombinant human FAP [1] came out at 0.0032 µM; on DPP4 it was 4.83 µM; on recombinant human DPP7, 6.56 µM.

These data come from patent US11655235B2, “Pyrrolidine and piperidine compounds” (YUHAN CORPORATION, priority 2019, dated 2023).
